Laboratory results: PubChem BioAssay (NCI)
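Values below derive from 48-hour exposures of cells grown in 96-well plates, with endpoints linearly interpolated between the two concentrations bracketing the appropriate inhibition level. TGI is the concentration that stops growth completely.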

Experiments:
Assay in all cases: growth of human tumour cells (NCI), 48 h
786-0 renal = system: 786-0 renal
A498 renal = system: A498 renal
A549 NSCLC = system: A549 NSCLC
ACHN renal = system: ACHN renal
BT-549 breast = system: BT-549 breast
CAKI-1 renal = system: CAKI-1 renal
CCRF-CEM leukemia = system: CCRF-CEM leukemia
COLO 205 colon = system: COLO 205 colon
DU-145 prostate = system: DU-145 prostate
EKVX NSCLC = system: EKVX NSCLC
HCC-2998 colon = system: HCC-2998 colon
HCT-116 colon = system: HCT-116 colon
HCT-15 colon = system: HCT-15 colon
HL-60(TB) leukemia = system: HL-60(TB) leukemia
HOP-92 NSCLC = system: HOP-92 NSCLC
HS 578T breast = system: HS 578T breast
HT29 colon = system: HT29 colon
IGROV1 ovarian = system: IGROV1 ovarian
K-562 leukemia = system: K-562 leukemia
KM12 colon = system: KM12 colon
LOX IMVI melanoma = system: LOX IMVI melanoma
M14 melanoma = system: M14 melanoma
MALME-3M melanoma = system: MALME-3M melanoma
MCF7 breast = system: MCF7 breast
MDA-MB-231 breast = system: MDA-MB-231 breast
MDA-MB-435 = system: MDA-MB-435
MDA-N = system: MDA-N
MOLT-4 leukemia = system: MOLT-4 leukemia
NCI-H226 lung = system: NCI-H226 lung
NCI-H23 lung = system: NCI-H23 lung
NCI-H460 lung = system: NCI-H460 lung
NCI/ADR-RES ovarian = system: NCI/ADR-RES ovarian
OVCAR-3 ovarian = system: OVCAR-3 ovarian
OVCAR-4 ovarian = system: OVCAR-4 ovarian
OVCAR-5 ovarian = system: OVCAR-5 ovarian
OVCAR-8 ovarian = system: OVCAR-8 ovarian
PC-3 prostate = system: PC-3 prostate
RPMI-8226 leukemia = system: RPMI-8226 leukemia
RXF 393 renal = system: RXF 393 renal
SF-268 CNS = system: SF-268 CNS
SF-295 CNS = system: SF-295 CNS
SF-539 CNS = system: SF-539 CNS
SK-MEL-2 melanoma = system: SK-MEL-2 melanoma
SK-MEL-28 melanoma = system: SK-MEL-28 melanoma
SK-MEL-5 melanoma = system: SK-MEL-5 melanoma
SK-OV-3 ovarian = system: SK-OV-3 ovarian
SNB-19 CNS = system: SNB-19 CNS
SNB-75 CNS = system: SNB-75 CNS
SR leukemia = system: SR leukemia
SW-620 colon = system: SW-620 colon
T-47D breast = system: T-47D breast
TK-10 renal = system: TK-10 renal
U251 CNS = system: U251 CNS
UACC-257 melanoma = system: UACC-257 melanoma
UACC-62 melanoma = system: UACC-62 melanoma
UO-31 renal = system: UO-31 renal
HOP-62 NSCLC = system: HOP-62 NSCLC
NCI-H522 lung = system: NCI-H522 lung
SN12C renal = system: SN12C renal

Measured: TGI

O=C(N=Nc1c(O)[nH]c2ccccc12)C(O)(c1ccccc1)c1ccccc1
27.9 µM: HCC-2998 colon
31.8 µM: MDA-MB-435 | SK-MEL-2 melanoma
34.2 µM: SNB-19 CNS
50.9 µM: OVCAR-4 ovarian
42.1 µM: A549 NSCLC
66.6 µM: HS 578T breast
36 µM: A498 renal
38.5 µM: PC-3 prostate
29.8 µM: UO-31 renal
33.3 µM: COLO 205 colon
39.6 µM: IGROV1 ovarian
30.4 µM: M14 melanoma
99.3 µM: TK-10 renal
30.1 µM: NCI-H23 lung | UACC-62 melanoma
28.3 µM: RXF 393 renal
35.3 µM: U251 CNS
73.9 µM: DU-145 prostate
56.6 µM: SK-OV-3 ovarian
62 µM: RPMI-8226 leukemia
37.5 µM: HCT-116 colon
87.9 µM: SF-268 CNS
35.4 µM: KM12 colon
67.3 µM: OVCAR-8 ovarian
43.8 µM: NCI-H226 lung
34.7 µM: NCI-H460 lung
68.8 µM: T-47D breast
31.4 µM: LOX IMVI melanoma
49.7 µM: HOP-92 NSCLC
28.9 µM: BT-549 breast
89.8 µM: K-562 leukemia
46.5 µM: MALME-3M melanoma
34 µM: MDA-N | SW-620 colon
29.6 µM: SF-539 CNS
79.4 µM: SR leukemia
30.3 µM: HCT-15 colon
43.6 µM: SNB-75 CNS
35.5 µM: MDA-MB-231 breast
36.3 µM: OVCAR-3 ovarian | SF-295 CNS
33.9 µM: SK-MEL-28 melanoma
31.5 µM: OVCAR-5 ovarian
56.4 µM: MCF7 breast
29.7 µM: SK-MEL-5 melanoma
69 µM: HL-60(TB) leukemia
37.2 µM: HT29 colon
84.6 µM: NCI/ADR-RES ovarian
56.3 µM: UACC-257 melanoma
not listed: HOP-62 NSCLC | NCI-H522 lung | SN12C renal
> 100 µM: all other assays above

COc1ccc2cc(C(=O)CCC(=O)O)ccc2c1
not listed: HCC-2998 colon
> 100 µM: all other assays above

CC(=O)OCC1OC(n2c3c(cc(C#N)c2=O)CCCCCC3)C(OC(C)=O)C(OC(C)=O)C1OC(C)=O (configuration not stated)
90.3 µM: T-47D breast
not listed: EKVX NSCLC | SK-OV-3 ovarian | SW-620 colon
> 100 µM: all other assays above

Nc1nc(Cl)nc(NCc2ccccc2)n1
not listed: UO-31 renal | NCI-H522 lung
> 100 µM: all other assays above
